Laboratory results reported in patent EP0423240B1, “MODULATION OF VIRUS-HOST CELL INTERACTIONS USING CYCLIC OLIGOSACCHARIDES” (THE TRUSTEES OF THE UNIVERSITY OF PENNSYLVANIA, priority 1988, dated 1990).

How the values were obtained:
HIV-2 = HIV-2 induced syncytia assay, ROD-2 infected cells cocultured with H9 target cells; assay type: cell-based; parameters: key to number of syncytia formed: 4 being multiple syncytia widely distributed; 0 indicating no syncytia observed; s=small; m=medium; L=large syncytia; conditions: for number of syncytia formed: HIV-2, number and size of syncytia
Experimental: For the assay of HIV-1 fusion, Supt T1 cells were used as target cells. They fuse rapidly when cocultured with HIV-1 (H9/IIIb) producing cell lines. For the assay of HIV-2 mediated cell fusion, H9 cells were used as target cells. They fuse rapidly when cocultured with HIV-2 (CEMROD-2) producing cell lines. HIV infected cells were plated in 96 well plates (10⁴ cells/well in RPMI 1640 + 10% FCS) and incubated with or without dilution of compounds for 30 minutes at 37°C. Target cells are then added 5 x 10⁵/well and the number of syncytia are qualitatively determined after the incubation periods described in the text. […]

HIV-1 [1] = test: Structural studies: electron microscopy of virus particle production by infected cells; assay type: cell-based
Experimental: Virus infected cells were washed and resuspended in fresh media in the presence or absence of test compounds. After a 48 hour culture period the cultures were pelleted and fixed in 1% glutaraldehyde, 0.1 M Cacodylate-HC1, pH 7.3 followed by OsO₄, and embedded in spur resin for examination of these sections by electron microscopy.
To further address this point, we analyzed virus particle production in the presence of specifically substituted cyclodextrins by electron microscopic examination. Virus infected cells were washed and resuspended in fresh media in the presence or absence of test compounds. After a 48 hour culture period, the cultures were pelleted and fixed in 1% glutaraldehyde, 0.1 M Cacodylate-HC1, pH 7.3 followed by OsO₄ and embedded in spur resin for examination of thin sections.

HTLV III -B (HIV-1 IIIB) = test: Fusion inhibition (syncytia) assay, Sup-T1 cells with HTLV-III B infected H9 cells; assay type: cell-based; parameters: key: 4=Full; 0=None; S=Small; M=Medium; L=Large; conditions: degree and size of syncytia
Experimental: (§1) The fusion inhibition (syncytia) assay was performed according to published procedures (Dalgleish et al., Nature 312:763, (1984) and Sodroski et al., Nature 322: 470, (1986)). Sup-T1 cells are favored target cells for their rapid degree of cell fusion when co-cultured with HIV-1 producing cell lines. Cell culture is performed according to the method of Dalgleish et al. (Nature 312:763, (1984)). Sup-T1 cells are plated in 96 well plates (10⁵ cells/well in RPMI 1640 + 10% FCS) and incubated with or without dilutions of beta-cyclodextrin tetradecasulfate (β-CD-TDS or β-CD-14S) at 37°C. HTLV-III B (HIV-1) or WMJ infected H9 cells are then added 5x10⁴/well and the number of multinucleated giant cells per 16 X field counted with a Zeiss inverted field phase contrast microscope after 18 hours. Syncytia are easily identified and inhibition of syncytia by different dilutions of β-CD-TDS can be compared with to β-CD-TDS free preparations. It will be apparent to those skilled in the art, that the formation of syncytia between cells susceptible of infection by HIV-1 and cells expressing HIV-1 envelope glycoproteins represents the same molecular phenomena involved in infection by HIV-1, but is far less hazardous and may be employed to study the mechanisms of infection and the effects of modulating factors on HIB-1 intracellular infection mechanisms, without fear of exposure to the virus itself.
(§2) For screening of different dilutions, 10-fold dilutions of a 150 micromolar solution of β-CD-TDS were prepared and directly added to syncytia assays as described above.
(§3) For the assay of HIV-1 fusion, Supt T1 cells were used as target cells. They fuse rapidly when cocultured with HIV-1 (H9/IIIb) producing cell lines. For the assay of HIV-2 mediated cell fusion, H9 cells were used as target cells. They fuse rapidly when cocultured with HIV-2 (CEMROD-2) producing cell lines. HIV infected cells were plated in 96 well plates (10⁴ cells/well in RPMI 1640 + 10% FCS) and incubated with or without dilution of compounds for 30 minutes at 37°C. Target cells are then added 5 x 10⁵/well and the number of syncytia are qualitatively determined after the incubation periods described in the text.
(§4) In a series of preliminary experiments, a syncytia assay induced by HIV-1 fusion of Sup-T1 cells was performed as described in Section 6.1.1, supra.

Water solubility at 0°C = assay type: physicochemical
Experimental: The cyclic oligosaccharide derivatives useful in the present invention are highly hydrophilic and therefore very water soluble. A highly hydrophilic character probably is important to allow interaction with cellular surfaces. The hydrophilic activity is likely roughly indicated by the affinity to water, as measured by water solubility. It is important to measure the same at 0°C since at higher temperatures the most suitable derivative have solubilities so high that meaningful measurements are difficult.

HTLV III WMJ = test: Fusion inhibition (syncytia) assay, Sup-T1 cells with WMJ infected H9 cells; assay type: cell-based, HIV-1; parameters: key to Degree of Syncytia Formation: 4=Full; 0=None; S=Small; M=Medium; L=Large; conditions: for Degree of Syncytia Formation: degree and size of syncytia
Experimental: as §1, §2, §3, §4

HIV-1 [2] = test: HIV-induced syncytia formation over time, comparison with dextran sulfates; assay type: cell-based; conditions: during the culture period (48 hours)
Experimental: Figure 6 compares the effects of dextran polysulfate and substituted β-cyclodextrins on HIV infectivity. In (A) degree of syncytia inhibition is shown on the ordinate for each compound added. SUL = 600 µM β-CD-14S, AL = 600 µM unsubstituted β-CD, Pro = 600 µM propoxylated β-CD, 2MET = 300 µM methoxylated β-CD, DS5 = 600 µM dextran sulfate 5,000, DS500 = 600 µM dextran sulfate 500,000. Results for each of 3 time points are shown. In (B) similar results utilizing reverse transcriptase assays are shown. Infectious virus particles were incubated in the presence of sulfated β-cyclodextrin (lane 1), dextran sulfate 5000 (lane 2) or media (lane 3) for 6 days at which time cells were resuspended in fresh media and allowed to incubate a further 10 days before being harvested. Reverse transcriptase activity was assayed as described in Section 6.1, infra. 1/2 dilutions of the compound added are shown from bottom (highest concentration at 2.5 mM) to top (lowest concentration).
For the assay of HIV-1 fusion, Supt T1 cells were used as target cells. They fuse rapidly when cocultured with HIV-1 (H9/IIIb) producing cell lines. For the assay of HIV-2 mediated cell fusion, H9 cells were used as target cells. […] Target cells are then added 5 x 10⁵/well and the number of syncytia are qualitatively determined after the incubation periods described in the text.

Which results are given for “beta-cyclodextrin tetradecasulfate [Beta-CD-14S]”?
number of syncytia formed (HIV-2; 1.3 mM): 0; number of syncytia formed (HIV-2; 2.5 mM): 0; number of syncytia formed (HIV-2; .01 mM): 4 L; number of syncytia formed (HIV-2; .02 mM): 4 L; number of syncytia formed (HIV-2; .04 mM): 4 L; number of syncytia formed (HIV-2; .08 mM): 3 L; number of syncytia formed (HIV-2; .16 mM): 2m; number of syncytia formed (HIV-2; .32 mM): 1 s; number of syncytia formed (HIV-2; .63 mM): 0; inhibition of syncytia formation mediated by ROD-2 (HIV-2; result in words): inhibited syncytia formation; morphology of viral particles produced (HIV-1 [1]; 300 µM, 48 hour culture): typical of the lentivirus family; morphology of the viral particles produced (HIV-1 [1]; infected H9 cells, 1 mM): mature morphology; Degree of Syncytia Formation (HTLV III -B (HIV-1 IIIB); 0.15 micromolar β-CD-TDS): 4 L; Degree of Syncytia Formation (HTLV III -B (HIV-1 IIIB); 1.50 micromolar β-CD-TDS): 4 L; Degree of Syncytia Formation (HTLV III -B (HIV-1 IIIB); 15.0 micromolar β-CD-TDS): 4 L; Degree of Syncytia Formation (HTLV III -B (HIV-1 IIIB); 150 micromolar β-CD-TDS): 2 M; Degree of Syncytia Formation (HTLV III -B (HIV-1 IIIB); 1500 micromolar β-CD-TDS): 0; Solubility 0°C (Water solubility at 0°C): 42 g/100ml H₂O; Degree of Syncytia Formation (HTLV III WMJ; 0.15 micromolar β-CD-TDS): 4 L; inhibition of syncytia formation (HTLV III WMJ; 0.15 micromolar, text summary of Table 1 (both strains)): no inhibition of syncytia formation was observed; Degree of Syncytia Formation (HTLV III WMJ; 1.50 micromolar β-CD-TDS): 3 M; Degree of Syncytia Formation (HTLV III WMJ; 15.0 micromolar β-CD-TDS): 1S; Degree of Syncytia Formation (HTLV III WMJ; 150 micromolar β-CD-TDS): 0; Degree of Syncytia Formation (HTLV III WMJ; 1500 micromolar β-CD-TDS): 0; inhibition of syncytia (HTLV III WMJ; between 1.5 micromolar and 1500 micromolar, text summary of Table 1 (both strains)): inhibition of syncytia was observed; anti-syncytial activity (HIV-1 [2]): remained unchanged
